Experimental data as given in patent US7388124B2 (priority 2001, dated 2008).
Where “and” joins values, the source holds several entries; their conditions need not be identical. Equal values may be shown once. Read-outs that look alike come from different tables or passages of the source.

Tests used:
rat pain model variants [1] = format: in vivo, Sprague Dawley rats; details: n=12 rats
Procedure: Male Sprague Dawley rats initially weighing between 150 and 175 grams were housed singly. […] The pain behaviors studied were static mechanical allodynia (e.g., light touch stimulation with von Frey fibers 4.56, 4.73, 4.93, and/or 5.07), dynamic mechanical allodynia (e.g., stimulation with moving camel hair brush), and/or mechanical hyperalgesia (e.g., pinprick stimulation).
(§1) After the baseline control data was collected, the specified procedure with a gel was performed near the chosen nerve of each variant group (see Tables 2-6 and 8-10), then the rats were tested post procedurally and intermittently for up to 77 days for behavioral changes (see Tables 2-6 and 8-11) and for their responses to substances with analgesic properties (see Tables 7 and 12).
The stimuli used to elicit pain behavior were the von Frey fibers, camel hair brush and pinprick, with 6 stimulations of each stimulus.
(§2) The tunnels identified by the above studies were then used for the placement of the biocompatible gels by the chosen peripheral nerves. The gelatinous or viscous substances (i.e., the gels) placed by the peripheral nerves or nerve roots contained collagen (e.g., AVITENE® and gelatin) or hydrogels. The “collagen gel” used in the present study was composed of 0.8 grams of collagen as AVITENE® (microfibrillar collagen hemostat flour, Davol Inc., Cranston, R.I. 02920) and 0.7 grams of collagen as gelatin (Knox gelatin, Kraft Foods, Northfield, Ill. 60093) mixed with 14 cc of normal saline until homogenous. Then the collagen mixture was placed in a PYREX® bowl resting in a paper bowl and covered with a ceramic saucer, then heated for 20 seconds at full power in a microwave. The resulting viscous mixture was kept fluid in a warm water bath at 100-110° F., until used for the placement procedure. The wound hydrogels used in the present study were two types: one contains alginate (SAF-Gel® from ConvaTec of E. R. Squibb & Sons, Princeton, N.J.) and the other contains acemannan from Aloe vera L. (Carrasyn®V from Carrington Laboratories, Irving, Tex.). […] Such hydrogels are used in the care of open dermal wounds as well as in first and second degree burns since they provide a closed moist environment for wound healing.
(§3) The rats were anesthesized with 1.5% to 2% isoflurane for the percutaneous kinesthetic placement of the above “gels” by the specified nerves. Using an angled 23 gauge thin wall 1″ needle, approximately 0.1 cc-0.2 cc of gel was placed percutaneously with kinesthetic technique in the anatomically defined fascial tunnels of the chosen peripheral nerves as described below.
(§4) The doses were given intraperitoneally (I.P.) and behavioral stimulus testing began 40-80 minutes after the dose. The student's t-test (p<0.05) was performed for determining the significance of changes in behaviors associated with pain after the analgesic was administered.

[2] = test system: open surgical rat model for CRPS I; details: prior art surgical model, Reyna et al. 1999; cited from earlier work
[3] = test system: Mice with Neural Compression; assay: von Frey fiber and camel hair brush testing for mechanical allodynia in mice with collagen placed by the posterior tibial nerve; format: in vivo; details: for Average # Paw Withdrawals: of 10 stimulations, n=10 mice
Procedure: Biocompatible collagen was prepared for use in the present study. The collagen source was dry gelatin that was prepared using sterile techniques. The dry collagen was measured to 2.5 grams and mixed with 7.5 cc of sterile normal saline. The mixture was heated for 30 seconds in a microwave on 80% power, The mixture was kept soft in warm water (approximately 100 to 110 degrees).
The consistency of the resulting warm collagen was such that it was able to pass through a 23 gauge needle. Humidity and other factors such as temperature can affect the consistency of the substance. 1-cc syringes were used for injection of 0.2 to 0.25 cc of collagen. For the injection, 23 gauge 1″ standard luer lock hypodermic needles were used. The needles were very slightly dulled with a metal file at the tip and edges using sterile technique. The needles were angled at the midpoint with a bevel tip up. The angle was between 30 and 45 degrees, but any angle that allows for easy placement of the injected substance could be used. The needles were then attached to the collagen-filled one cc syringes. The syringes were kept in a warm water bath (100 to 110° F.) to maintain proper gel consistency.
The mice were lightly anesthetized with 1.5 to 2% isoflurane. The mice were then stabilized and aligned such that the left posterior leg was in view. The external anatomic landmarks of the posterior popliteal area were identified. The internal anatomy of this area including the posterior tibial nerve with its artery was mentally visualized with kinesthetic techniques. Kinesthetic techniques are methods that use the kinesthetic sense or the integration of the senses by which movement, mass, turgor, shape, resistance, elasticity, temperature, spatial relationships and position are commonly perceived. It also refers to the integrated use of multiple senses such as touch, proprioception, vision, and hearing. After location of the site for placement of the gel, the needle and syringe were then removed from the warm water bath. The distal portion of the needle was held loosely parallel to the tibia. The needle was allowed to gently penetrate through the dermis by pulling the skin taut over the popliteal fossa. With careful avoidance of tissue resistance, the needle tip, bevel up, was gently slipped beneath the fascial edge of the soleus muscle by the tibial nerve and artery into the deep posterior fascial compartment of the posterior tibial neurovascular tunnel, which is the neurovascular tunnel for the posterior tibial nerve and its proximal branches. When the tip of the needle was at the mid soleus muscle belly, the collagen mixture was slowly injected into the posterior tibial tunnel. The needle was removed and the animals allowed to recover from the anesthetic. All animals were normally moving freely within 20 minutes of anesthesia withdrawal.
Two days after placement of the collagen gel around the nerve, von Frey testing was again performed. Von Frey testing continued for 49 days. […]

rat pain model variants [4] = assay: Analgesic effect in rat neurogenic pain model variants (overall statement); format: in vivo, Sprague Dawley rats; details: within 40-80 minutes
Procedure: (§5) The methods of preparation and testing were similar for all the variant pain models described in this example. Male Sprague Dawley rats initially weighing between 150 and 175 grams were housed singly. Baseline behaviors to stimulations of the paw on which the procedure was to be performed were recorded over several sessions after accommodation of 3-4 days, and the results were averaged and used as the baseline control data. The pain behaviors studied were static mechanical allodynia (e.g., light touch stimulation with von Frey fibers 4.56, 4.73, 4.93, and/or 5.07), dynamic mechanical allodynia (e.g., stimulation with moving camel hair brush), and/or mechanical hyperalgesia (e.g., pinprick stimulation).
as §1
(§6) The stimuli used to elicit pain behavior were the von Frey fibers, camel hair brush and pinprick, with 6 stimulations of each stimulus. Each variant pain model had the same sequence of stimuli with the positive responses averaged and a student T-test performed for the significance of the post procedural responses as compared to the baseline control data (see Tables 2-6 and 11); and for the post-analgesic responses as compared to the pre-analgesic behavioral data (see Tables 7 and 12).
as §2, §3, §4

rat pain model variants [5] = assay: Dynamic mechanical allodynia (camel hair brush) in rat pain model variants; format: in vivo, Sprague Dawley rats; details: n=12 rats
Procedure: as §5, §1, §6
The tunnels identified by the above studies were then used for the placement of the biocompatible gels by the chosen peripheral nerves. The gelatinous or viscous substances (i.e., the gels) placed by the peripheral nerves or nerve roots contained collagen (e.g., AVITENE® and gelatin) or hydrogels. […]

rat pain model variants [6] = assay: Mechanical hyperalgesia (pinprick) in rat pain model variants; format: in vivo, Sprague Dawley rats; details: for Post Avg, Average Positive stimulations out of 6 total, Stim PP Pin Prick: n=12 rats; for Pinprick # ST[…]-ANALGESIC: of 6
Procedure: as §5, §1, §6, §2, §3, §4

NCC1(CC(=O)O)CCCCC1 [gabapentin]
Post Avg, Average Positive stimulations out of 6 total, Stim A vF 4.56 (rat pain model variants [1]; Gabapentin 50 mg/kg (IP), Pre Avg 2.0, p=8.5E-5): 0.25
Post Avg, Average Positive stimulations out of 6 total, Stim C vF 5.07 (rat pain model variants [1]; Gabapentin 50 mg/kg (IP), Pre Avg 2.42, p=4.4E-4): 0.75
Post Avg, Average Positive stimulations out of 6 total, Stim B vF 4.93 (rat pain model variants [1]; Gabapentin 50 mg/kg (IP), Pre Avg 2.58, p=5.8E-5): 0.5
analgesic response [2]: exhibited an analgesic response
Average # Paw Withdrawals ([3]; gabapentin 25 mg/kg IP, post procedure day 58 (9.14 before dose)): 6.86
Average # Paw Withdrawals ([3]; gabapentin 40 mg/kg IP, post procedure day 65 (9.19 before dose)): 5.81
Analgesic response (mechanical allodynia) ([3]; gabapentin 25 or 40 mg/kg IP): Analgesic responses were shown
analgesic effect (significance) (rat pain model variants [4]; gabapentin 50 mg/kg IP, Table 12): significant analgesic effects
analgesic effect (significance) (rat pain model variants [4]; gabapentin 50 mg/kg IP, Table 12, listed as Gabapentin): significant analgesic effect
Post Avg, Average Positive stimulations out of 6 total, Stim S Brush (rat pain model variants [5]; Gabapentin 50 mg/kg (IP), Pre Avg 3.25, p=9.5E-4): 1.25
Post Avg, Average Positive stimulations out of 6 total, Stim PP Pin Prick (rat pain model variants [6]; Gabapentin 50 mg/kg (IP), Pre Avg 5.08, p=2.6E-5): 2.25

CN1CC[C@]23c4c5ccc(O)c4O[C@H]2[C@@H](O)C=C[C@H]3[C@H]1C5.O=S(=O)(O)O [morphine, morphine sulfate]
Post Avg, Average Positive stimulations out of 6 total, Stim A vF 4.56 (rat pain model variants [1]; Morphine Sulfate 5 mg/kg (IP), Pre Avg 2.83, p=1.6E-4): 0.33
Post Avg, Average Positive stimulations out of 6 total, Stim B vF 4.93 (rat pain model variants [1]; Morphine Sulfate 5 mg/kg (IP), Pre Avg 3.33, p=1.3E-6): 0.58
Post Avg, Average Positive stimulations out of 6 total, Stim C vF 5.07 (rat pain model variants [1]; Morphine Sulfate 5 mg/kg (IP), Pre Avg 3.33, p=6.1E-6): 0.83
analgesic response [2]: exhibited an analgesic response
Average # Paw Withdrawals ([3]; morphine 1 mg/kg IP, post procedure day 49 (8.71 before dose)): 8.71
Average # Paw Withdrawals ([3]; morphine 5 mg/kg IP, post procedure day 51 (8.88 before dose)): 6.66
Analgesic response (mechanical allodynia) ([3]; morphine at least 5 mg/kg IP): Analgesic responses were shown
analgesic effect (significance) (rat pain model variants [4]; morphine 5 mg/kg IP, Tables 7 and 12, listed as Morphine, sulfate): significant analgesic effect
analgesic effect (significance) (rat pain model variants [4]; morphine 5 mg/kg IP, Tables 7 and 12, listed as morphine Sulfate, sulfate): significant analgesic effects
Post Avg, Average Positive stimulations out of 6 total, Stim S Brush (rat pain model variants [5]; Morphine Sulfate 5 mg/kg (IP), Pre Avg 4.75, p=1.5E-6): 1.69
Pinprick # ST[…]-ANALGESIC (rat pain model variants [6]; Morphine 5 mg/kg IP, 1 rat peroneal n. with Avitene collagen, pre 6): 1
Pinprick # ST[…]-ANALGESIC (rat pain model variants [6]; Morphine 5 mg/kg IP, 1 rat tibial n. with Acemannan hydrogel, pre 6): 2
Pinprick # ST[…]-ANALGESIC (rat pain model variants [6]; Morphine 5 mg/kg IP, 1 rat tibial n. with Alginate hydrogel, pre 6): 3
Pinprick # ST[…]-ANALGESIC (rat pain model variants [6]; Morphine 5 mg/kg IP, single rats sciatic n. with Alginate hydrogel (two rats, pre 6 and 6), sulfate): 2 and 4
Pinprick # ST[…]-ANALGESIC, Total (rat pain model variants [6]; Morphine 5 mg/kg IP, total of 5 rats, pre total 30, pre vs post p=2.1E-3): 12
Post Avg, Average Positive stimulations out of 6 total, Stim PP Pin Prick (rat pain model variants [6]; Morphine Sulfate 5 mg/kg (IP), Pre Avg 5.67, p=2.0E-10): 2.17
